Data: US10189809B2, “SGC stimulators” (Ironwood Pharmaceuticals, Inc., priority 2010, dated 2019)
Read-outs that look alike come from different tables or passages of the source.

Columns and labels:
[1] = target: T1, soluble guanylate cyclase (sGC) (Homo sapiens (Human), UniProt Q02108+Q02153); assay: sGC-HEK-cGMP assay run in the absence of SNP (HEK WC assay); assay type: cell-based; settings: compound at 30 μM, absence of SNP
Summary of the method: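 HEK293 cells with endogenous sGC, preincubated 15 min at 37° C with 0.5 mM IBMX, then exposed to test compound 10 min at 37° C without SNP. Cells lysed in 0.1 M HCl; cGMP quantified by LC/MS against a standard curve. EC50 from concentration-response curves.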

[2] = target: T1, soluble guanylate cyclase (sGC); assay: sGC-HEK-cGMP assay run with SNP incubation (HEK WC assay); assay type: cell-based; settings: for HEK WC Assay (fold increase at 30 μM in the presence of 10 μM SNP): compound at 30 μM; for EC50: in the presence of 10 uM SNP
Summary of the method: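 HEK293 cells with endogenous sGC were pretreated with 0.5 mM IBMX for 15 min at 37 °C, then exposed to test compound plus sodium nitroprusside for 10 min at 37 °C.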

[3] = read-out: HEK WC Assay (% Emax at 10 μM with 10 uM SNP)
[4] = read-out: HEK WC Assay (% Emax at 30 μM with 10 uM SNP)

T1 sequence (Q02153 whole entry): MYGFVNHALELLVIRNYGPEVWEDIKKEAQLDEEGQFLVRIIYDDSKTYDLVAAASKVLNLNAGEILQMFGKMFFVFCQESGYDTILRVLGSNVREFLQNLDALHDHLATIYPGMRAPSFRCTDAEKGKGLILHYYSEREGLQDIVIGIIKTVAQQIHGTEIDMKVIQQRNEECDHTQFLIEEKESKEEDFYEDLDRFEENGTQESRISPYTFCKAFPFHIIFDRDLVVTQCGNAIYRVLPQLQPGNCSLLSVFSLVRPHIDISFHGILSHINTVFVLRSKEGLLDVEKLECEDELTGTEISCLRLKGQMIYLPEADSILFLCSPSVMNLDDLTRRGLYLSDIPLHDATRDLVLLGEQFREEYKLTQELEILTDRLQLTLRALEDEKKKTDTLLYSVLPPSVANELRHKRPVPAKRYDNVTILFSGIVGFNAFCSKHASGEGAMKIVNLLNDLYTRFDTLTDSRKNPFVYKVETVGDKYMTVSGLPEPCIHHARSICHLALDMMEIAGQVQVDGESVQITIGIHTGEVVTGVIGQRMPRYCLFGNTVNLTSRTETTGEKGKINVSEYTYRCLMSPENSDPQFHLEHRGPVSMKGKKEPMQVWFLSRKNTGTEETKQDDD
T1 sequence (Q02108 whole entry): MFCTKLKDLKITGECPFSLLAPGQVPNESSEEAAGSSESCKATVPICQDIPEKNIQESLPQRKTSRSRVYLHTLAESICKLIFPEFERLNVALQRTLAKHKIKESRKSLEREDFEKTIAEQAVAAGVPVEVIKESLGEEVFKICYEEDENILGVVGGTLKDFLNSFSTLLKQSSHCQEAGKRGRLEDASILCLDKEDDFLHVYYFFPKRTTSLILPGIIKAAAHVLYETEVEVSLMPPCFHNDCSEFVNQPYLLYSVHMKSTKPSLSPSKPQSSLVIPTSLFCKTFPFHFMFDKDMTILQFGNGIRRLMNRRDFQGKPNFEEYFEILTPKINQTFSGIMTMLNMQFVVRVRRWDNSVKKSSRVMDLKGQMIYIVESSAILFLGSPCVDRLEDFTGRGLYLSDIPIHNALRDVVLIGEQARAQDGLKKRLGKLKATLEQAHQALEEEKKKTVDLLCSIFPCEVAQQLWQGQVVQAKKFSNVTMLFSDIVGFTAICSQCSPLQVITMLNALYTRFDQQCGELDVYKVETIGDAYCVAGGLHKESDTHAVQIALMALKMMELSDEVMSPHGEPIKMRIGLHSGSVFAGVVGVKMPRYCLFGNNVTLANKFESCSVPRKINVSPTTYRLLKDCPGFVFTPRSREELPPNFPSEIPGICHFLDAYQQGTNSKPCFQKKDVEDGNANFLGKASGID

SMILES | HEK WC Assay (fold increase at 30 μM in the absence of SNP) [1] | HEK WC Assay (fold increase at 30 μM in the presence of 10 μM SNP) [2] | Emax [2, 3] [%] | Emax [2, 4] [%] | EC50 [2] [µM]
CCOc1cnc(-c2cc(-c3ncccn3)nn2Cc2ccccc2F)o1 [Compound I-292] | B (B = 1 to <2 fold increase) | B (B = 1 to <2 fold increase) | 0 to 10 | 0 to 10 | 
N#Cc1cc(-c2ncccn2)nn1Cc1ccccc1F [Compound I-293] | C (C = 2 to <5 fold increase) | C (C = 2 to <5 fold increase) | 20 to 40 | 20 to 40 | 40 to 60
Oc1coc(-c2cc(-c3ncccn3)nn2Cc2ccccc2F)n1 [Compound I-295] | B (B = 1 to <2 fold increase) | C (C = 2 to <5 fold increase) | 0 to 10 | 10 to 20 | 40 to 60
Cc1cc(O)nc(-c2cc(-c3ccon3)n(Cc3ccccc3F)n2)n1 [Compound I-298] | B (B = 1 to <2 fold increase) | C (C = 2 to <5 fold increase) | 10 to 20 | 20 to 40 | 
Cc1cc(Cl)nc(-c2cc(-c3ccon3)n(Cc3ccccc3F)n2)n1 [Compound I-299] | C (C = 2 to <5 fold increase) | F (F = 20 to <30 fold increase) | 60 to 80 | 60 to 80 | < 20
Oc1cc(-c2cccnc2)nc(-c2cc(-c3ccon3)n(Cc3ccccc3F)n2)n1 [Compound I-300] | B (B = 1 to <2 fold increase) | B (B = 1 to <2 fold increase) |  |  | 
Fc1ccccc1Cn1nc(-c2ncccn2)cc1-c1ccco1 [Compound I-306] | D (D = 5 to <10 fold increase) | E (E = 10 to <20 fold increase) | 20 to 40 | 40 to 60 | < 20
Fc1ccccc1Cn1nc(-c2ncccn2)cc1C1CCC1 [Compound I-307] | C (C = 2 to <5 fold increase) | C (C = 2 to <5 fold increase) | 0 to 10 | 0 to 10 | 
Fc1ccccc1Cn1nc(-c2cccc(Br)n2)cc1-c1ccccn1 [Compound I-308, 2-Bromo-6-(1-(2-fluorobenzyl)-5-(pyridin-2-yl)-1H-pyrazol-3-yl)pyridine] | B (B = 1 to <2 fold increase) | B (B = 1 to <2 fold increase) | 0 to 10 | 0 to 10 | 
Fc1ccccc1Cn1nc(-c2ncccn2)cc1-c1ncco1 [Compound I-309] | B (B = 1 to <2 fold increase) | E (E = 10 to <20 fold increase) | 20 to 40 | 20 to 40 | < 20
Oc1ccc(-c2cc(-c3ccccn3)nn2Cc2ccccc2F)cc1 [Compound I-310] | B (B = 1 to <2 fold increase) |  | 0 to 10 | 0 to 10 | 
Fc1ccccc1Cn1nc(-c2ccccn2)cc1-c1cncs1 [Compound I-311] | B (B = 1 to <2 fold increase) | C (C = 2 to <5 fold increase) | 0 to 10 | 0 to 10 | 
Fc1ccccc1Cn1nc(-c2ccccn2)cc1-c1cccc(Br)n1 [Compound I-313, 2-Bromo-6-(1-(2-fluorobenzyl)-3-(pyridin-2-yl)-1H-pyrazol-5-yl)pyridine] | C (C = 2 to <5 fold increase) | C (C = 2 to <5 fold increase) | 0 to 10 | 0 to 10 | 
